Measurements reported in patent US8163795B2, “Chroman derivatives, medicaments and use in therapy” (Marshall Edwards, Inc., priority 2004, dated 2012).
Like-named read-outs stand apart in the source and are kept apart here.

How the values were obtained:
[1] = tested on: Neonatal foreskin fibroblasts (NFF); assay: Proliferation assay (MTT), normal cell toxicity; type: cell-based, Human; details: Homo sapiens, Fibroblast, read-out: IC50
Description: (§1) The normal cell line NFF (neonatal foreskin fibroblasts) was a sift from Dr. Peter Parsons (Queensland Institute of Medical Research). RK (rabbit kidney) cells were obtained from Miller Whalley (Macquarie University). Both cell lines were cultured in RPMI supplemented with 10% FCS(CSL, Australia), penicillin (100 U/ml), streptomycin ([…]), L-glutamine (2 mM) and sodium bicarbonate (1.2 g/L), and cultured at 37° C. in a humidified atmosphere of 5% CO2.
(§2) IC50 values were determined for each cell line. Cells were seeded in 96-well plates at an appropriate cell density as determined from growth kinetics analysis and cultured for 5 days in the absence and presence of the test compounds. Cell proliferation was assessed after the addition of 20 μl of 3-4,5 dimethylthiazol-2,5-diphenyl tetrazolium bromide (MTT, 2.5 mg/ml in PBS, Sigma) for 3-4 hrs at 37° C. according to manufacturer's instructions. IC50 values were calculated from semi-log plots of % of control proliferation on the y-axis against log dose on the x-axis.

rabbit kidney cells (RK) = assay: Proliferation assay (MTT), normal cell toxicity; type: cell-based; details: Oryctolagus cuniculus; rabbit kidney cells; read-out: IC50
Description: as §1, §2

[2] = tested on: SKOV-3 ovarian cancer cell line; assay: Proliferation assay (MTT); type: cell-based; details: Homo sapiens, SK-OV-3; Table 2.1; Ovarian SKOV-3; read-out: IC50
MM200 melanoma cell line [3] = assay: Proliferation assay (MTT); type: cell-based; details: read-out: IC50
[4] = HMC and HHC pharmacokinetics, oral, human patients; type: in vivo; details: plasma
Description: Human patients were orally dosed with 200 mg of either HMC or HHC. For each challenged patient, blood was taken over a 6 hour period and the results averaged to characterise the plasma pharmacokinetics.

[5] = HMC pharmacokinetics i.v. and i.p., mice; type: in vivo, female BALB/c mice; details: for concentration at 0.25 hr / concentration at 0.5 h / concentration at 4 hr / concentration at 24 hr / concentration at 1 hr: female, BALB/c, mouse, serum, 50 mg/kg; for concentration at 0.25 hr: 50 mg/kg in 20% HPBCD; for concentration at 0.5 h: 0.50 hr
Description: HMC was prepared as a solution in 20% hydroxypropyl-beta-cyclodextrin (m:v, water). […] Three animals were allocated to each timepoint (15 min, 30 min, 1 hr, 4 hr and 24 hr). At each respective timepoint, animals were euthanased by cervical dislocation and blood collected. Urine was also collected and analysed for HMC. Free HMC was analysed by mass spectroscopy.

[6] = tested on: normal fibroblasts (MRC-5); assay: Apoptosis in normal fibroblasts; type: cell-based; details: same concentration (8 μM) and exposure times (24 and 48 hr) as melanoma cells
Description: Studies were conducted on normal fibroblasts (MRC-5) and TRAIL-sensitive melanoma cells (ME4405 and MEL-RM) using 8 μM of either DHE, or HMC over 24 and 48 hr of exposure (FIG. 9).

MM200 melanoma cell line [7] = assay: HMC combination with cisplatin (synergy); type: cell-based; details: for IC50: Table 8, single agent
Description: as §2
(§3) 3-D model analysis of the cytotoxic interaction between drug A and drug B enables the representation of predicted inhibitory effect of two drugs in combination in 3 dimensions to reveal actual regions of synergy or antagonism. The 3D synergy plots are based on a theory of “Theretical Additivity” (TA) as outlined by Kanzawa et al (Int. J. Cancer 71, 311-319 (1997)). Theoretical Additivity was calculated from the cytotoxicities of drug A and drug B as monotherapies using the following formula which assumes the drugs are mutually exclusive inhibitors: […]
(§4) The TA is calculated for each combination of drug concentrations and subtracted from the observed experimental effect for each combination to give a measurement of synergisitic action.
HMC synergy with cisplatin was assessed either in combination over 5 days exposure or in sequence (HMC→cisplatin) against the MM200 melanoma cell line. It was difficult to assess for synergisitic toxicity using a change in IC50 as a measure of synergy due to HMC toxicity as monotherapy (Table 8). […] Evidence of synergy using the HMC-cisplatin combination was further assessed using the HMC→cisplatin sequence (24 hr exposure to each compound in sequence) against the melanoma cell line MM200. Using change in IC50 to assess for synergy it was noted that HMC at concentrations of 2 μM markedly chemosensitised the MM200 cells to cisplatin by >1000 fold (Table 8). HMC induced chemosensitisation of MM200 cells to cisplatin was confirmed using 3D analysis of the data (FIG. 11B).

4405 melanoma cell line = assay: HMC combination with paclitaxel (synergy); type: cell-based; details: for IC50: Table 10, single agent
Description: as §2, §3, §4
HMC synergy with paclitaxel was assessed either in combination over 5 days exposure or in sequence (HMC→paclitaxel) against the 4405 melanoma cell line. It was difficult to assess for synergisitic toxicity using a change in IC50 as a measure of synergy due to HMC toxicity as monotherapy (Table 10). […] Evidence of synergy using the HMC-paclitaxel combination was further assessed using the HMC→paclitaxel sequence (24 hr exposure to each compound in sequence) against the melanoma cell line 4405. Using change in IC50 to assess for synergy it was noted that HMC at concentrations of 2 μM markedly chemosensitised the 4405 cells to paclitaxel by >1000 fold (Table 10). HMC-induced chemosensitisation of […] cells to paclitaxel was confirmed using 3D analysis of the data.

[8] = human, po, humans dosed orally with 200 mg
[9] = 120 h, 5 days exposure, read-out: IC50, Combined (monotherapy)
[10] = 24 hr exposure, read-out: IC50, 24 hr (monotherapy)

Compound: COc1ccc(C2c3ccc(O)cc3OCC2c2ccc(O)cc2)cc1 (centres unmarked) [Compound 1, 3-(4-hydroxyphenyl)-4-(4-methoxyphenyl)chroman-7-ol]
- IC50 ([1]; Table 1, Neonatal Foreskin Fibroblasts (Human, NFF)): 86.1 ± 7.6 µM
- IC50 ([1]; NFF): 86 µM
- IC50 (rabbit kidney cells (RK)): 61 µM
- IC50 [2]: 2.26 µM
- IC50 (MM200 melanoma cell line [3]; Table 2.1, Melanoma MM200): 0.7 ± 0.03 µM
- IC50 (MM200 melanoma cell line [3]; Table 2.2, Melanoma MM200): 1.07 ± 0.5 µM
- IC50 (MM200 melanoma cell line [3]; Table 15, melanoma MM200, monotherapy): 1.13 ± 0.52 µM
- Cmax [4, 8]: 513 ng/mL
- Tmax [4, 8]: 2.17 h
- t1/2 ([4]; humans dosed orally with 200 mg): 3.99 h
- half-life ([4]; human patients, 200 mg oral, initial results): 3.99 h
- free HMC in urine ([5]; 0.5 hr): 3.3 mM
- free HMC in urine ([5]; 1 hr): 3.9 mM
- serum concentration i.p. vs i.v. ([5]; 1 hr post administration): ~4.5 fold
- free HMC in urine ([5]; 4 hr): 0.093 mM
- concentration at 0.25 hr ([5]; ip): 131 µM
- concentration at 0.5 h ([5]; ip): 31.8 µM
- concentration at 4 hr ([5]; ip, 4 hr): 0.15 µM
- concentration at 24 hr ([5]; ip): 0.17 µM
- concentration at 1 hr ([5]; ip, i.p., 1 hr post administration, read-out: serum concentration): 18.7 µM
- concentration at 1 hr ([5]; ip, ip, 1 hr, read-out: Serum HMC): 18.7 µM
- concentration at 0.25 hr ([5]; iv): 1070 µM
- concentration at 0.5 h ([5]; iv): 199 µM
- concentration at 4 hr ([5]; iv, 4 hr): 0.07 µM
- concentration at 24 hr ([5]; iv): 0.05 µM
- concentration at 1 hr ([5]; iv, i.v., 1 hr post administration, read-out: serum concentration): 3.98 µM
- concentration at 1 hr ([5]; iv, iv, 1 hr, read-out: Serum HMC): 3.98 µM
- HMC in plasma ([5]; i.p. administration, up to 1 hour post administration): 131 µM
- elimination kinetics ([5]; i.p., hours 1-4 post administration): 4.6 µM/h
- elimination kinetics ([5]; i.p., up to 1 hour post administration): 112 µM/h
- HMC in plasma ([5]; i.v. administration, up to 1 hour post administration): 1069 µM
- level of HMC in blood ([5]; i.v. in HPBCD, 15 min post administration): 1000 µM
- rate of excretion from blood ([5]; i.v., first hr post administration): ~1000 µM/h
- rate of excretion from blood ([5]; i.v., hours 1-4 post administration, assuming linear excretion): 0.97 µM/h
- serum concentration of free HMC i.p. vs orally delivered HMC ([5]; mice): ~18 fold
- induction of apoptosis in normal fibroblasts [6]: do not induce apoptosis
- IC50 (MM200 melanoma cell line [7]; [9]): 0.72 µM
- Change Factor (HMC first) (MM200 melanoma cell line [7]; HMC 1 uM 24 hr then cisplatin 24 hr): −1.31
- Change Factor (HMC first) (MM200 melanoma cell line [7]; HMC 2 uM 24 hr then cisplatin 24 hr): >10000
- chemosensitisation of MM200 cells to cisplatin (change in IC50) (MM200 melanoma cell line [7]; HMC 2 μM, HMC→cisplatin sequence): > 1000 fold
- Change Factor (HMC first) (MM200 melanoma cell line [7]; HMC 5 uM 24 hr then cisplatin 24 hr): >10000
- Change Factor (HMC first) (MM200 melanoma cell line [7]; HMC 10 uM 24 hr then cisplatin 24 hr): >10000
- IC50 (MM200 melanoma cell line [7]; [10]): 20.6 µM
- reduction in IC50 in the combination experiment vs paclitaxel monotherapy (4405 melanoma cell line; 5-day combination): 30 fold
- IC50 (4405 melanoma cell line; [9]): 1.26 µM
- chemosensitisation of 4405 cells to paclitaxel (change in IC50) (4405 melanoma cell line; HMC 2 μM, HMC→paclitaxel sequence): > 1000 fold
- Change Factor (HMC first) (4405 melanoma cell line; Paclitaxel block, HMC 1 uM 24 hr then paclitaxel 24 hr): 11.00
- Change Factor (HMC first) (4405 melanoma cell line; Paclitaxel block, HMC 2 uM 24 hr then paclitaxel 24 hr): 106633.75
- Change Factor (Combined) (4405 melanoma cell line; Paclitaxel block, with HMC 1 uM, 5-day combination): 30.36
- Change Factor (Combined) (4405 melanoma cell line; Paclitaxel block, with HMC 2 uM, 5-day combination): ?HMC effect
- IC50 (4405 melanoma cell line; [10]): 55.5 µM
- Change Factor (HMC first) (4405 melanoma cell line; upper block of Table 10, HMC 2 uM first, sequence): −1.035
- Change Factor (Combined) (4405 melanoma cell line; upper block of Table 10, HMC 2 uM, 5-day combination): 5964.400
